The results in this text go back to patent US8420657B2 (Novartis AG, priority 2008, dated 2013).

For test [1], the system named is JAK1/JAK2-dependent nuclear translocation of STAT1-GFP in HT1080 fibrosarcoma cells. Kind of test: STAT1 nuclear translocation assay (Cellomics), IFN-γ stimulated HT1080 STAT1-GFP cells. The class given is cell-based. An excerpt:
The medium-throughput (96-well format) cellular automated fluorescence microscopy Cellomics assay can be routinely used to assess the functional activation of Janus Kinases (JAKs), based on the nuclear translocation of their substrate, Signal Transducer and Activator of Transcription (STAT). Nuclear translocation can be monitored either in HT1080 fibrosarcoma cells stably transfected with STAT1 fused to Green Fluorescence Protein (GFP) or in U-2 OS osteosarcoma cells stably transfected with STAT5 fused to Green Fluorescence Protein (GFP). Stimulation of HT1080 cells with interferon-γ (IFN-γ) results in JAK1/JAK2-dependent nuclear translocation of STAT1-GFP, whereas stimulation of U-2 OS cells with recombinant human erythropoietin (rhEpo) results in JAK2-dependent nuclear translocation of STAT5-GFP, both of which can be quantified using the Cellomics Cyto/NucTrans software package. This assay may be used to provide an assessment of the nuclear-cytoplasmic differential (NCD) of STAT-GFP using Hoechst dye to define the boundaries of the nucleus.
HT1080 fibrosarcoma cells may be obtained from ATCC and can be cultured in alpha Modified Eagle Medium with 10% FCS. Cells can be transfected with pEGFP-N2 STAT1 using Fugene 6 Transfection Reagent following the manufacturers' protocol. 24 hours after transfection the medium can be replaced and selected in 1 mg/ml Geneticin.
Compounds can be dissolved in DMSO to a final stock concentration of 10 mM and stored as aliquots at 4° C. Compounds may be pre-diluted in 100% DMSO at 10 mM, 3 mM 1 mM, 0.3 mM, 0.1 mM, 0.03 mM, 0.01 mM and 0.003 mM. Subsequently, compounds may be diluted in medium and added in 50 μl to the cells. The final compound concentrations tested may be 10 μM, 3 μM 1 μM, 0.3 μM, 0.1 μM, 0.03 μM, 0.01 μM and 0.003 μM and the final DMSO concentration can be 0.1%.
HT1080 STAT1-GFP cells may be seeded at a density of 10,000 cells per well in clear-bottom black 96-well Packard View-Plates™. 16-24 hours later, the cells can be treated for 2 hours with 100 ng/ml IFN-γ, washed twice in pre-warmed PBS and fixed in 200 μl of pre-warmed fixation solution (PBS, 3.7% Formaldehyde) for 10 minutes. The plates may be washed twice in 200 μl PBS and incubated, protected from light, in 100 μl of DNA-staining solution (PBS, 0.5 μg/ml Hoechst-33342) for 1 minute. The plates may then be washed once in PBS, and 200 μl PBS finally added per well. The plates, being finally covered with a black adhesive, may be either read directly or stored at 4° C. for later imaging. Where appropriate, the compounds may be added 30 min before stimulation with IFN-γ.
The plates can be read on a Cellomics® ArrayscanII automated fluorescence microscope plate reader equipped with a Mercury-Xenon white light illumination source and a Zeiss Axiovert inverted microscope, using the XF100 dichroic/emission filter cube and matching excitation filters, 10× magnification, and a 0.3 numerical aperture objective. Image acquisition and analysis can be performed using a customized protocol based on the ‘NuclearTranslocation’ Bioapplication. For each well, multiple images (fields) can be acquired until a minimum of 1000 cells are counted using two 2 channels: Channel 1 (Hoechst)=focus+nuclear mask, Channel 2 (GFP)=signal quantification in mask areas as outlined below. Nuclei may be first identified based on the Hoechst staining and a mask generated for each nucleus that then serves as a template to generate a circle (eroded inwards by 1 pixel) and a 3 pixel-wide collar-like ring (off-set outwards by 1 pixel), in which the nuclear and cytoplasmic intensity of GFP, respectively, are quantified in the corresponding channel. High content analysis yields numerous measurements per cell and the GFP intensity differential between the nuclear and the cytoplasmic masks may be chosen as a measure of sub-cellular STAT-GFP relocation. The resulting values may be averaged for all cells in the well to return a single measurement plus standard deviation. […]

In test [2] the target is T1, GST-JAK2(808-1132) (Homo sapiens, UniProt O60674).
T1 construct: GST-JAK2(808-1132); purchased Invitrogen (Carlsbad, USA) #4288
Description: JAK2 kinase assay (Caliper mobility shift, LabChip 3000). The class given is biochemical. A digest of the protocol:
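Eight-point compound series (final 10–0.003 μM) tested on purchased GST-JAK2 kinase domain (808-1132). Peptide FITC-JAK3tide plus ATP reacted 60 min, 30 °C, then quenched with EDTA; turnover from charge-based separation of substrate and product.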

[3] abbreviates: Homo sapiens, HT-1080, STAT1 translocation pathway.

T1 sequence (O60674 808-1132): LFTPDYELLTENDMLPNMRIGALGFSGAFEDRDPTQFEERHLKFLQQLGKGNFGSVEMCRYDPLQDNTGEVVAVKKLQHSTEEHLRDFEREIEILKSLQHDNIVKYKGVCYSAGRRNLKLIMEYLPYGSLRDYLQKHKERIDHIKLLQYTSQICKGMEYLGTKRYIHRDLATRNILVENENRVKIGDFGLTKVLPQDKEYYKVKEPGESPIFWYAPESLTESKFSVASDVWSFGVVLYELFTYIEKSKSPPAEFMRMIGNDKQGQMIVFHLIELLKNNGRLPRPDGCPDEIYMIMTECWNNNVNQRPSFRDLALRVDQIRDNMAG

Consider `C[C@@H]1CN[C@@H](C)CN1c1ccc(Nc2ncc3ccn(-c4ccc(S(C)(=O)=O)cc4)c3n2)cn1` (racemic) [Example 274, [6-((2R,5S)-2,5-Dimethyl-piperazin-1-yl)-pyridin-3-yl]-[7-(4-methanesulfonyl-phenyl)-7H-pyrrolo[2,3-d]pyrimidin-2-yl]-amine], for which the IC50 in test [1] (setting [3]) amounted to 0.52 µM; in test [2], 0.0072 µM.

Turning to `CCOc1ccc(Nc2ncc3ccn(-c4ccc(S(C)(=O)=O)cc4)c3n2)cc1OCC` [Example 1, (3,4-Diethoxy-phenyl)-[7-(4-methanesulfonyl-phenyl)-7H-pyrrolo[2,3-d]pyrimidin-2-yl]-amine], the IC50 in test [1] (setting [3]) was 0.0435 µM; in test [2], < 0.003 µM.

For `CN1CCN(C(=O)c2ccc(Nc3ncc4ccn(-c5cc(F)c(CN6CCOCC6)c(F)c5)c4n3)cc2)CC1` [Example 2, {4-[7-(3,5-Difluoro-4-morpholin-4-ylmethyl-phenyl)-7H-pyrrolo[2,3-d]pyrimidin-2-ylamino]-phenyl}-(4-methyl-piperazin-1-yl)-methanone], the IC50 in test [1] (setting [3]) came to 0.19 µM; in test [2], 0.0032 µM.

For `CC(C)Oc1ccc(Nc2ncc3ccn(-c4ccc(S(C)(=O)=O)cc4)c3n2)cc1` [Example 3, (4-Isopropoxy-phenyl)-[7-(4-methanesulfonyl-phenyl)-7H-pyrrolo[2.3-d]pyrimidin-2-yl]-amine], the IC50 worked out at 0.0985 µM in test [1] (STAT1 translocation pathway) and 0.0094 µM in test [2].

For `COc1cc(Nc2ncc3ccn(-c4ccc(S(C)(=O)=O)cc4)c3n2)cc(OC)c1OC` [Example 4, [7-(4-Methanesulfonyl-phenyl)-7H-pyrrolo[2,3-d]pyrimidin-2-yl]-(3,4,5-trimethoxy-phenyl)-amine], the figures for the IC50 in test [1] (setting [3]) and in test [2] were 0.0367 µM and 0.0022 µM, respectively.

Regarding `COc1ccc(Nc2ncc3ccn(-c4ccc(C(=O)NC(C)(C)C)cc4)c3n2)cc1OC` [Example 7, N-tert-Butyl-4-[2-(3,4-dimethoxy-phenylamino)-pyrrolo[2,3-d]pyrimidin-7-yl]-benzamide], the figures for the IC50 in test [1] (setting [3]) and in test [2] were 0.255 µM and 0.0062 µM, respectively.

`COc1cc(Nc2ncc3ccn(-c4ccc(S(=O)(=O)NC(C)(C)C)cc4)c3n2)cc(OC)c1OC` [Example 8, N-tert-Butyl-4-[2-(3,4,5-trimethoxy-phenylamino)-pyrrolo[2,3-d]pyrimidin-7-yl]-benzenesulfonamide]: the IC50 in test [1] (setting [3]) is 0.032 µM; in test [2], < 0.003 µM.

Consider `CCN(CC)C(=O)N1CCN(c2ccc(Nc3ncc4ccn(-c5ccc(S(C)(=O)=O)cc5)c4n3)cc2)CC1` [Example 13, 4-{4-[7-(4-Methanesulfonyl-phenyl)-7H-pyrrolo[2,3-d]pyrimidin-2-ylamino]-phenyl}-piperazine-1-carboxylic acid diethylamide], for which the IC50 was determined as 0.032 µM in test [1] (setting [3]) and 0.0038 µM in test [2].

Consider `CN1CCC(c2ccc(Nc3ncc4ccn(-c5ccc(S(C)(=O)=O)cc5)c4n3)cc2)CC1` [Example 16, [7-(4-Methanesulfonyl-phenyl)-7H-pyrrolo[2,3-d]pyrimidin-2-yl]-[4-(1-methyl-piperidin-4-yl)-phenyl]-amine], for which the IC50 in test [1] (setting [3]) is 0.025 µM; in test [2], < 0.003 µM.

Take `CN1CCN(c2cccc(Nc3ncc4ccn(-c5ccc(S(C)(=O)=O)cc5)c4n3)c2)CC1` [Example 17, [7-(4-Methanesulfonyl-phenyl)-7H-pyrrolo[2,3-d]pyrimidin-2-yl]-[3-(4-methyl-piperazin-1-yl)-phenyl]-amine]: the figures for the IC50 in test [1] (setting [3]) and in test [2] were 0.0205 µM and < 0.003 µM, respectively.

As to `COc1ccc(Nc2ncc3ccn(-c4ccc(S(C)(=O)=O)cc4)c3n2)cc1OCCCN(C)C` [Example 27, [3-(3-Dimethylamino-propoxy)-4-methoxy-phenyl]-[7-(4-methanesulfonyl-phenyl)-7H-pyrrolo[2,3-d]pyrimidin-2-yl]-amine], the IC50 was 0.085 µM in test [1] (setting [3]) and < 0.003 µM in test [2].

For `COc1ccc(Nc2ncc3ccn(-c4ccc(S(C)(=O)=O)cc4)c3n2)cc1OCCN1CCOCC1` [Example 29, [7-(4-Methanesulfonyl-phenyl)-7H-pyrrolo[2,3-d]pyrimidin-2-yl]-[4-methoxy-3-(2-morpholin-4-yl-ethoxy)-phenyl]-amine], the IC50 was 0.091 µM in test [1] (setting [3]) and < 0.003 µM in test [2].

Turning to `CS(=O)(=O)c1ccc(-n2ccc3cnc(Nc4ccc(C(=O)N5CCOCC5)cc4)nc32)cc1` [Example 30, {4-[7-(4-Methanesulfonyl-phenyl)-7H-pyrrolo[2,3-d]pyrimidin-2-ylamino]-phenyl}-morpholin-4-yl-methanone], the IC50 in test [1] (setting [3]) is 0.205 µM; in test [2] it was < 0.003 µM.

In the case of `COc1ccc(Nc2ncc3ccn(-c4ccc(S(C)(=O)=O)cc4)c3n2)cc1OCCN1CCCC1` [Example 31, [7-(4-Methanesulfonyl-phenyl)-7H-pyrrolo[2,3-d]pyrimidin-2-yl]-[4-methoxy-3-(2-pyrrolidin-1-yl-ethoxy)-phenyl]-amine], the IC50 in test [1] (setting [3]) is 0.046 µM; in test [2], < 0.003 µM.

With `CS(=O)(=O)c1ccc(-n2ccc3cnc(Nc4ccc(OCCN5CCOCC5)cc4)nc32)cc1` [Example 34, [7-(4-Methanesulfonyl-phenyl)-7H-pyrrolo[2,3-d]pyrimidin-2-yl]-[4-(2-morpholin-4-yl-ethoxy)-phenyl]-amine], the IC50 is 0.0695 µM in test [1] (setting [3]) and < 0.003 µM in test [2].

In the case of `CCN(CC)CCOc1cccc(Nc2ncc3ccn(-c4ccc(S(C)(=O)=O)cc4)c3n2)c1` [Example 36, [3-(2-Diethylamino-ethoxy)-phenyl]-[7-(4-methanesulfonyl-phenyl)-7H-pyrrolo[2,3-d]pyrimidin-2-yl]-amine], the IC50 in test [1] (setting [3]) is 0.0109 µM; in test [2], < 0.003 µM.

Consider `CN1CCN(C(=O)c2cccc(Nc3ncc4ccn(-c5ccc(S(C)(=O)=O)cc5)c4n3)c2)CC1` [Example 39, {3-[7-(4-Methanesulfonyl-phenyl)-7H-pyrrolo[2,3-d]pyrimidin-2-ylamino]-phenyl}-(4-methyl-piperazin-1-yl)-methanone], for which the figures for the IC50 in test [1] (setting [3]) and in test [2] were 1.37 µM and 0.014 µM, respectively.

As to `CN(C)CCNC(=O)c1ccc(Nc2ncc3ccn(-c4ccc(S(C)(=O)=O)cc4)c3n2)cc1` [Example 40, N-(2-Dimethylamino-ethyl)-4-[7-(4-methanesulfonyl-phenyl)-7H-pyrrolo[2,3-d]pyrimidin-2-ylamino]-benzamide], the results for the half-inhibitory concentration (IC50) in test [1] (setting [3]) and in test [2] were 0.155 µM and < 0.003 µM, respectively.

Turning to `CS(=O)(=O)c1ccc(-n2ccc3cnc(Nc4cccc(CN5CCCCC5)c4)nc32)cc1` [Example 41, [7-(4-Methanesulfonyl-phenyl)-7H-pyrrolo[2,3-d]pyrimidin-2-yl]-(3-piperidin-1-ylmethyl-phenyl)-amine], the IC50 was 0.075 µM in test [1] (setting [3]) and < 0.003 µM in test [2].

On to `CS(=O)(=O)c1ccc(-n2ccc3cnc(Nc4ccc(CN5CCCCC5)cc4)nc32)cc1` [Example 42, [7-(4-Methanesulfonyl-phenyl)-7H-pyrrolo[2,3-d]pyrimidin-2-yl]-(4-piperidin-1-ylmethyl-phenyl)-amine], for which the IC50 in test [1] (setting [3]) was 0.17 µM; in test [2] it was 0.0031 µM.

In general, IC50 refers to the concentration that gives 50% inhibition.
